Assay results taken from patent US20260223850A1, “SUBSTITUTED PYRROLIDONE COMPOUND, PREPARATION METHOD THEREFOR, COMPOSITION AND APPLICATION THEREOF” (QINGDAO KINGAGROOT CHEMICAL COMPOUND CO., LTD., priority 2023, published 2026).

Columns and labels:
Assay in all cases: Seedling stage sealing experiment for water-seeding
Format in all cases: in vivo
[1] = tested on: Echinochloa phyllopogon; conditions: 120 g a.i./ha, seedling stage sealing, 15 days, fresh weight control rate
Procedure, shortened: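 Seeds sown on soil in pots kept moist in water-filled boxes, then sprayed with acetone/water compound solution at 120, 60, 30 and 15 g a.i./ha, in triplicate. Effect scored after 15 days in greenhouse as 0–9 levels of fresh-weight growth control, averaged.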

[2] = tested on: Echinochloa crusgalli; conditions: 120 g a.i./ha, seedling stage sealing, 15 days, fresh weight control rate
[3] = tested on: Leptochloa chinensis; conditions: 120 g a.i./ha, 15 days, fresh weight control rate
Source text: (1) Seedling Stage Sealing Experiment for Water-Seeding:
The activity level criteria for plant damage (i.e., growth control rate) are as follows: • Level 9: completely dead; • Level 8: growth control rate greater than or equal to 90% and less than 100%; • Level 7: growth control rate greater than or equal to 80% and less than 90%; • Level 6: growth control rate greater than or equal to 70% and less than 80%; • Level 5: growth control rate greater than or equal to 50% and less than 70%; • Level 4: growth control rate greater than or equal to 30% and less than 50%; • Level 3: growth control rate greater than or equal to 20% and less than 30%; • Level 2: growth control rate greater than or equal to 10% and less than 20%; • Level 1: growth control rate less than 10%; • Level 0: no effect.
The above growth control rates are fresh weight control rates.
Echinochloa phyllopogon, Digitaria sanguinalis, Huaidao (rice cultivar), etc. were broadcasted on the surface of nutrition bowls filled with soil and fully covered by soil. The foregoing well-prepared nutrition bowls were then placed in a cultivation box with water filled to a suitable height to keep the soil in the nutrition bowls moist. A test compound of the present invention was individually dissolved with acetone, then diluted into solution of a certain concentration using a certain amount of water, and sprayed using a spray tower. The plants were placed on a greenhouse seedbed and cultured for 15 days, and the experimental results were then collected. The compound was applied at 120, 60, 30 and 15 g a.i./ha in triplicate, and the results were averaged.

Compound	Echinochloa phyllopogon activity level (growth control rate) [1]	Echinochloa crusgalli activity level (growth control rate) [2]	Leptochloa chinensis activity level (growth control rate) [3]
CN1CC(c2cc(F)c(F)c(F)c2)C(C(=O)Nc2cnn(C)c2F)C1=O (stereo not drawn) [Compound 323]	5 (Level 5: growth control rate greater than or equal to 50% and less than 70%)	5 (Level 5: growth control rate greater than or equal to 50% and less than 70%)	6 (Level 6: growth control rate greater than or equal to 70% and less than 80%)
CN1C[C@H](c2ccc(C(F)(F)F)c(F)c2)[C@@H](C(=O)Nc2cnn(C)c2Cl)C1=O [315′]	8 (Level 8: growth control rate greater than or equal to 90% and less than 100%)	9	9
CN1C[C@H](c2cccc(C(F)(F)F)c2)[C@@H](C(=O)Nc2cnn(C)c2I)C1=O [186′]	7 (Level 7: growth control rate greater than or equal to 80% and less than 90%)	9	9
CN1C[C@H](c2cccc(C(F)(F)F)c2)[C@@H](C(=O)Nc2cnn(C)c2Br)C1=O [120′]	8 (Level 8: growth control rate greater than or equal to 90% and less than 100%)	9	9
CN1C[C@H](c2cccc(Br)c2)[C@@H](C(=O)Nc2cnn(C)c2Cl)C1=O [126′]	9	9	9
CN1C[C@H](c2cc(F)cc(F)c2)[C@@H](C(=O)Nc2c(O)nn(C)c2F)C1=O [263′]	8 (Level 8: growth control rate greater than or equal to 90% and less than 100%)	9	9
CN1C[C@H](c2cccc(C(F)(F)F)c2)[C@@H](C(=O)Nc2cnn(CC(F)(F)F)c2Cl)C1=O [161′]	8 (Level 8: growth control rate greater than or equal to 90% and less than 100%)	9	9
CN1C[C@H](c2cccc(OC(F)(F)F)c2)[C@@H](C(=O)Nc2cnn(C)c2Cl)C1=O [33′]	8 (Level 8: growth control rate greater than or equal to 90% and less than 100%)	9	9
Cc1cc(Br)cc([C@H]2CN(C)C(=O)[C@@H]2C(=O)Nc2cnn(C)c2Cl)c1 [265′]	9	9	9
CN1CC(c2cc(C(F)(F)F)ccc2F)C(C(=O)Nc2cnn(C)c2Cl)C1=O (stereo not drawn) [Compound 80]	6 (Level 6: growth control rate greater than or equal to 70% and less than 80%)	6 (Level 6: growth control rate greater than or equal to 70% and less than 80%)	6 (Level 6: growth control rate greater than or equal to 70% and less than 80%)
CN1C[C@H](c2cccc(OC(F)(F)F)c2)[C@@H](C(=O)Nc2c(O)nn(C)c2F)C1=O [229′]	9	9	9
CCc1c(NC(=O)[C@H]2C(=O)N(C)C[C@@H]2c2cccc(C(F)(F)F)c2)cnn1C [190′]	8 (Level 8: growth control rate greater than or equal to 90% and less than 100%)	9	9
CN1CC(c2cccc(Br)c2)C(C(=O)Nc2cnn(C)c2Cl)C1=O (stereo not drawn) [Compound 126]	7 (Level 7: growth control rate greater than or equal to 80% and less than 90%)	7 (Level 7: growth control rate greater than or equal to 80% and less than 90%)	9
